Data on two compounds can be found in patent publication US20070253913A1, “Aerosol formulations for delivery of dihydroergotamine to the systemic circulation via pulmonary inhalation” (priority 2003, published 2007).

Broadly, the Tmax is the time at which the peak concentration occurs. One may read the bioavailability as dose-corrected exposure relative to a reference, in per cent.

Where “and” joins values, the source holds several entries; their conditions need not be identical. Identical values can stand only once. Counter-ions that a name gives are not always drawn. Like-named read-outs stand apart in the source and are kept apart here. Bounds are passed on as bounds.

Data set [1] is described as follows: Pharmacokinetics of DHE in dog serum after DPI inhalation vs intravenous bolus. Type of data set: in vivo, dogs. The settings on record: for Tmax: dog serum, inhalation 1 mg DPI. The method, then: In this study, dogs were administered the DHE particles via the DPI format (total dose 1 mg) and by intravenous bolus (total dose 0.5 mg) and DHE levels were measured in dog serum at defined intervals.

Data set [2] is described as follows: Powder stability with accelerated environmental aging, HPLC assay. Type of data set: physicochemical. The procedure: (§1) DHE particle were produced by the SEDS super critical fluid process as described by Palakadoty et al. (US Application 20030109421). The DHE particulate powder produced was assayed by HPLC to determine purity and the mass mean aerodynamic diameter was determined using an Aerosizer instrument under standard operating conditions known in the art. […] The DHE particulate powder was subject to standard accelerated aging conditions of: (i) 3 months at 40 degrees Celsius and 75% relative humidity; and (ii) 25 degrees Celsius and 60% relative humidity. The DHE particles were placed in a tightly sealed dark glass container and placed in the appropriate incubation ovens for the 3 month period. At the end of the three month period, purity and particle size were again assessed as discussed above.

For data set [3] the following is noted: cited from earlier work.
Data set [4] can be described thus: Powder stability with accelerated environmental aging, particle size by Aerosizer. Type of data set: physicochemical. Conditions: MMAD. The procedure: as §1

`CN1C[C@H](C(=O)N[C@]2(C)O[C@@]3(O)[C@@H]4CCCN4C(=O)[C@H](Cc4ccccc4)N3C2=O)C[C@@H]2c3cccc4[nH]cc(c34)C[C@H]21` [DHE, dihydroergotamine]: the “Tmax” value was 10 min in data set [1] (individual dogs); 5 min in data set [1] (dog, in vivo, inhaled or intranasal, 1 mg, individual dogs, read-out: Tmax (converted)); 6.7 min in data set [1] (dog, in vivo, inhaled or intranasal, 1 mg, n=3, read-out: Tmax Average (converted)). Besides, the “blood levels of DHE compared to intravenous delivery” value in data set [1] (dog, DPI 1 mg vs iv bolus 0.5 mg, FIG. 1) is recorded as “maintained at higher levels over an extended period of time”. For the same compound, the “time to measurable levels of DHE in the blood after inhalation” value in data set [1] (dog, DPI 1 mg, FIG. 1) was at most 30 s. In data set [1] (dog, in vivo, dog, inhalation 1.0 mg vs iv bolus 0.5 mg, n=3, read-out: F (bioavailability) Average (%)), the bioavailability is 52%. In addition, in data set [1] (dog, inhalation 1.0 mg vs iv bolus 0.5 mg, individual dogs), the “F (bioavailability) (%)” value is 27% and 49% and 80%. Moreover, the “HPLC Assay (%)” value in data set [2] (3 Months @ 25 C./60% RH, sealed dark glass container) stood at 101.0%; in data set [2] (3 Months @ 40 C./75% RH, sealed dark glass container) it was 102.0%; in data set [2] (Initial, on production) it was 98.3%. Moreover, in data set [3] (in vivo), the “bioavailability, administered dose reaching the systemic circulation” value is 2-10%. Also, the “Particle Size (microns by Aerosizer)” value in data set [4] (3 Months @ 25 C./60% RH) was found to be 1.044 microns; in data set [4] (3 Months @ 40 C./75% RH) it was 1.091 microns; in data set [4] (Initial, on production), 1.131 microns.

On to `CN1C[C@H](C(=O)N[C@]2(C)O[C@@]3(O)[C@@H]4CCCN4C(=O)[C@H](Cc4ccccc4)N3C2=O)C=C2c3cccc4[nH]cc(c34)C[C@H]21` [ergotamine tartrate], for which the bioavailability entry in data set [3] (pulmonary delivery) was “up to 92%”.
